Laboratory results as given in paper PMC10305119, “Analogs of 6-Bromohypaphorine with Increased Agonist Potency for α7 Nicotinic Receptor as Anti-Inflammatory Analgesic Agents” (Marine Drugs, 2023).
“Also recorded” adds a separate entry of the source.

How the values were obtained:
[1] = target: T1, human α3-containing nAChRs (Homo sapiens, UniProt P32297); experiment: Calcium imaging of α3-containing nAChRs in SH-SY5Y cells (nicotine-induced calcium rise); type: cell-based
T1 construct: endogenous in cells; host or cells: human neuroblastoma SH-SY5Y
T1 sequence (P32297 32-505): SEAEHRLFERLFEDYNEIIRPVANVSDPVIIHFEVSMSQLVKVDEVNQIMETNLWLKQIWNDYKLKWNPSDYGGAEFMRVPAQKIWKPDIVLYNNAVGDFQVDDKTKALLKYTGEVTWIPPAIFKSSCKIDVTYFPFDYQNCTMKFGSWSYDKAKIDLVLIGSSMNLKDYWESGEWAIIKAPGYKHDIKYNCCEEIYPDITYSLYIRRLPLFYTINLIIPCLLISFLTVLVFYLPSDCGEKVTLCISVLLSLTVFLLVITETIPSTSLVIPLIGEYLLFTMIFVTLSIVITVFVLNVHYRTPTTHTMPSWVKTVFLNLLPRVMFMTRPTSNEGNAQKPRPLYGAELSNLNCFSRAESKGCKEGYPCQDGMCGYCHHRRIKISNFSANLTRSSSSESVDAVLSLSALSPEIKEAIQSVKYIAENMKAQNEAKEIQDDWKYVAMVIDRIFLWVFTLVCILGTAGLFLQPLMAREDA
Description: Two of the studied compounds with high and medium agonist potency for α7 nAChR (6CF and 6ID, Table 1) were tested for activity toward α3* nAChR by calcium imaging.
Normalized data are presented as mean ± standard error. n = 6–7.

[2] = system: ERK 1/2 phosphorylation; experiment: ERK1/2 phosphorylation in LPS-stimulated macrophages (flow cytometry); type: cell-based, human; conditions: compound 1 h, then LPS 3 h; control MFI 194; listed as 6ID
Description: To gain an insight into the signaling induced by the tested compounds, ERK1/2 and STAT3 phosphorylation was checked. Macrophages were treated with tested compounds for 1 h, after which they were stimulated with LPS for 3 h.
Peripheral blood mononuclear cells (PBMCs) were separated by Ficoll-Paque PLUS density gradient centrifugation. PBMCs were placed in a sterile Petri dish and incubated at 37 °C for 2 h. Unattached cells were then removed by washing with PBS and substituted with fresh complete RPMI 1640 medium. To generate monocyte-derived macrophages (MDMs), 50 ng/mL GM-CSF was added to the isolated monocytes and cultured for 6 days to differentiate them into non-polarized MDMs.
Figure 5 Effects of the analyzed compounds on signaling pathways in LPS-stimulated macrophages. Cells were treated with PNU 282987, hypaphorine, or 6-iodohypaphorine methyl ester (6ID) for 1 h and then stimulated with LPS for 3 h. Phosphorylated ERK1/2 and STAT3 were quantified by flow cytometry with specific antibodies. […] (c): Representative histogram showing the increase in ERK 1/2 phosphorylation in comparison to control. The numbers in the histograms show the MFI ± SD (n = 3). MFI—geometrical mean fluorescence intensity. One-way ANOVA tests with Tukey post hoc test: * p ˂ 0.05, ** p ˂ 0.01, *** p < 0.001 in comparison with untreated cells. […]

Q: What does the source list for `COC(=O)[C@@H](Cc1c[nH]c2cc(I)ccc12)[N+](C)(C)C` [Compound 1, (D)-6-iodohypaphorine methyl ester]?
A: agonism on α3* nAChR (calcium response) ([1]; compound alone, listed as 6ID): does not evoke noticeable calcium response in range of 3–30 μM; also recorded: Neither 6ID, which was most active agonist of α7 nAChR, nor 6CF showed detectable agonism on α3* nAChR at concentrations up to 30 µM; IC50 ([1]; inhibition of nicotine (100 μM)-induced calcium rise): 4.4 ± 1 µM; ERK 1/2 phosphorylation, MFI [2]: 274
